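Compound exposure: 48 hours, 5 concentrations, 96-well plates. TGI: total growth inhibition.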
Test system: NCI-H23 lung
Assay: inhibition of tumour cell growth, NCI panel, 48 h

| Structure (SMILES) | TGI |
| --- | --- |
| Brc1ccc2c3c1[C@@H]1O[C@@H]1c1cccc(c1-3)[C@@H]1O[C@H]21 | 33.7 µM |
| O=C(O)Cc1ccc2nc(COC(=O)c3ccccc3)sc2c1 | > 100 µM |
| N#CC(C#N)=C1CCCS(=O)(=O)c2ccccc21 | > 100 µM |
| O=c1c2cc(I)ccc2[nH]c(=S)n1Cc1ccccc1 | > 100 µM |
| CCOC(=O)c1cnc2[nH]ccn2c1=O | > 10 µM |
| Cc1cccc(C[C@@]2(SCc3ccccc3)C(C)(C)[C@@H]3CC[C@@]2(C)C3)n1 | 31.4 µM |

Test system: NCI-H460 lung
Assay: inhibition of tumour cell growth, NCI panel, 48 h

| Structure (SMILES) | TGI |
| --- | --- |
| COC(=O)C1CC(C=[N+](C)C)=C(SC)N1 (configuration not stated) | > 100 µM |
| O=C(O)Cc1ccc2nc(COC(=O)c3ccccc3)sc2c1 | > 100 µM |
| N#CC(C#N)=C1CCCS(=O)(=O)c2ccccc21 | > 100 µM |
| O=c1c2cc(I)ccc2[nH]c(=S)n1Cc1ccccc1 | > 100 µM |
| CCOC(=O)c1cnc2[nH]ccn2c1=O | > 10 µM |
| Cc1cccc(C[C@@]2(SCc3ccccc3)C(C)(C)[C@@H]3CC[C@@]2(C)C3)n1 | 31.3 µM |

Test system: NCI-H522 lung
Assay: inhibition of tumour cell growth, NCI panel, 48 h

| Structure (SMILES) | TGI |
| --- | --- |
| COC(=O)C1CC(C=[N+](C)C)=C(SC)N1 (configuration not stated) | > 100 µM |
| Brc1ccc2c3c1[C@@H]1O[C@@H]1c1cccc(c1-3)[C@@H]1O[C@H]21 | 31.4 µM |
| O=C(O)Cc1ccc2nc(COC(=O)c3ccccc3)sc2c1 | > 100 µM |
| O=c1c2cc(I)ccc2[nH]c(=S)n1Cc1ccccc1 | 42.9 µM |
| Cc1cccc(C[C@@]2(SCc3ccccc3)C(C)(C)[C@@H]3CC[C@@]2(C)C3)n1 | 29.1 µM |

Test system: NCI/ADR-RES ovarian
Assay: inhibition of tumour cell growth, NCI panel, 48 h

| Structure (SMILES) | TGI |
| --- | --- |
| COC(=O)C1CC(C=[N+](C)C)=C(SC)N1 (configuration not stated) | > 100 µM |
| Brc1ccc2c3c1[C@@H]1O[C@@H]1c1cccc(c1-3)[C@@H]1O[C@H]21 | 45.4 µM |
| O=C(O)Cc1ccc2nc(COC(=O)c3ccccc3)sc2c1 | > 100 µM |
| N#CC(C#N)=C1CCCS(=O)(=O)c2ccccc21 | > 100 µM |
| O=c1c2cc(I)ccc2[nH]c(=S)n1Cc1ccccc1 | > 100 µM |
| CCOC(=O)c1cnc2[nH]ccn2c1=O | > 10 µM |
| Cc1cccc(C[C@@]2(SCc3ccccc3)C(C)(C)[C@@H]3CC[C@@]2(C)C3)n1 | 30.2 µM |

Test system: OVCAR-3 ovarian
Assay: inhibition of tumour cell growth, NCI panel, 48 h

| Structure (SMILES) | TGI |
| --- | --- |
| COC(=O)C1CC(C=[N+](C)C)=C(SC)N1 (configuration not stated) | > 100 µM |
| Brc1ccc2c3c1[C@@H]1O[C@@H]1c1cccc(c1-3)[C@@H]1O[C@H]21 | 52.6 µM |
| O=C(O)Cc1ccc2nc(COC(=O)c3ccccc3)sc2c1 | > 100 µM |
| N#CC(C#N)=C1CCCS(=O)(=O)c2ccccc21 | > 100 µM |
| O=c1c2cc(I)ccc2[nH]c(=S)n1Cc1ccccc1 | > 100 µM |
| CCOC(=O)c1cnc2[nH]ccn2c1=O | > 10 µM |
| Cc1cccc(C[C@@]2(SCc3ccccc3)C(C)(C)[C@@H]3CC[C@@]2(C)C3)n1 | 29.5 µM |

Test system: OVCAR-4 ovarian
Assay: inhibition of tumour cell growth, NCI panel, 48 h

| Structure (SMILES) | TGI |
| --- | --- |
| COC(=O)C1CC(C=[N+](C)C)=C(SC)N1 (configuration not stated) | > 100 µM |
| Brc1ccc2c3c1[C@@H]1O[C@@H]1c1cccc(c1-3)[C@@H]1O[C@H]21 | 41.3 µM |
| O=C(O)Cc1ccc2nc(COC(=O)c3ccccc3)sc2c1 | > 100 µM |
| N#CC(C#N)=C1CCCS(=O)(=O)c2ccccc21 | > 100 µM |
| O=c1c2cc(I)ccc2[nH]c(=S)n1Cc1ccccc1 | > 100 µM |
| CCOC(=O)c1cnc2[nH]ccn2c1=O | > 10 µM |

Test system: OVCAR-5 ovarian
Assay: inhibition of tumour cell growth, NCI panel, 48 h

| Structure (SMILES) | TGI |
| --- | --- |
| COC(=O)C1CC(C=[N+](C)C)=C(SC)N1 (configuration not stated) | > 100 µM |
| Brc1ccc2c3c1[C@@H]1O[C@@H]1c1cccc(c1-3)[C@@H]1O[C@H]21 | 34.3 µM |
| O=C(O)Cc1ccc2nc(COC(=O)c3ccccc3)sc2c1 | > 100 µM |
| N#CC(C#N)=C1CCCS(=O)(=O)c2ccccc21 | > 100 µM |
| O=c1c2cc(I)ccc2[nH]c(=S)n1Cc1ccccc1 | > 100 µM |
| CCOC(=O)c1cnc2[nH]ccn2c1=O | > 10 µM |
| Cc1cccc(C[C@@]2(SCc3ccccc3)C(C)(C)[C@@H]3CC[C@@]2(C)C3)n1 | 34.9 µM |

Test system: OVCAR-8 ovarian
Assay: inhibition of tumour cell growth, NCI panel, 48 h

| Structure (SMILES) | TGI |
| --- | --- |
| COC(=O)C1CC(C=[N+](C)C)=C(SC)N1 (configuration not stated) | > 100 µM |
| Brc1ccc2c3c1[C@@H]1O[C@@H]1c1cccc(c1-3)[C@@H]1O[C@H]21 | 30.8 µM |
| O=C(O)Cc1ccc2nc(COC(=O)c3ccccc3)sc2c1 | > 100 µM |
| N#CC(C#N)=C1CCCS(=O)(=O)c2ccccc21 | > 100 µM |
| O=c1c2cc(I)ccc2[nH]c(=S)n1Cc1ccccc1 | > 100 µM |
| CCOC(=O)c1cnc2[nH]ccn2c1=O | > 10 µM |
| Cc1cccc(C[C@@]2(SCc3ccccc3)C(C)(C)[C@@H]3CC[C@@]2(C)C3)n1 | 30 µM |

Test system: PC-3 prostate
Assay: inhibition of tumour cell growth, NCI panel, 48 h

| Structure (SMILES) | TGI |
| --- | --- |
| COC(=O)C1CC(C=[N+](C)C)=C(SC)N1 (configuration not stated) | > 100 µM |
| Brc1ccc2c3c1[C@@H]1O[C@@H]1c1cccc(c1-3)[C@@H]1O[C@H]21 | > 71.7 µM |
| O=C(O)Cc1ccc2nc(COC(=O)c3ccccc3)sc2c1 | > 100 µM |
| N#CC(C#N)=C1CCCS(=O)(=O)c2ccccc21 | > 100 µM |
| O=c1c2cc(I)ccc2[nH]c(=S)n1Cc1ccccc1 | > 100 µM |
| CCOC(=O)c1cnc2[nH]ccn2c1=O | > 10 µM |
| Cc1cccc(C[C@@]2(SCc3ccccc3)C(C)(C)[C@@H]3CC[C@@]2(C)C3)n1 | 35.7 µM |

Test system: RPMI-8226 leukemia
Assay: inhibition of tumour cell growth, NCI panel, 48 h

| Structure (SMILES) | TGI |
| --- | --- |
| COC(=O)C1CC(C=[N+](C)C)=C(SC)N1 (configuration not stated) | > 100 µM |
| Brc1ccc2c3c1[C@@H]1O[C@@H]1c1cccc(c1-3)[C@@H]1O[C@H]21 | > 100 µM |
| O=C(O)Cc1ccc2nc(COC(=O)c3ccccc3)sc2c1 | > 100 µM |
| N#CC(C#N)=C1CCCS(=O)(=O)c2ccccc21 | > 100 µM |
| O=c1c2cc(I)ccc2[nH]c(=S)n1Cc1ccccc1 | > 100 µM |
| CCOC(=O)c1cnc2[nH]ccn2c1=O | > 10 µM |
| Cc1cccc(C[C@@]2(SCc3ccccc3)C(C)(C)[C@@H]3CC[C@@]2(C)C3)n1 | 30.5 µM |

Test system: RXF 393 renal
Assay: inhibition of tumour cell growth, NCI panel, 48 h

| Structure (SMILES) | TGI |
| --- | --- |
| COC(=O)C1CC(C=[N+](C)C)=C(SC)N1 (configuration not stated) | > 100 µM |
| Brc1ccc2c3c1[C@@H]1O[C@@H]1c1cccc(c1-3)[C@@H]1O[C@H]21 | 32.3 µM |
| O=C(O)Cc1ccc2nc(COC(=O)c3ccccc3)sc2c1 | > 100 µM |
| N#CC(C#N)=C1CCCS(=O)(=O)c2ccccc21 | > 100 µM |
| O=c1c2cc(I)ccc2[nH]c(=S)n1Cc1ccccc1 | 78 µM |
| CCOC(=O)c1cnc2[nH]ccn2c1=O | > 10 µM |
| Cc1cccc(C[C@@]2(SCc3ccccc3)C(C)(C)[C@@H]3CC[C@@]2(C)C3)n1 | 30.9 µM |

Test system: SF-268 CNS
Assay: inhibition of tumour cell growth, NCI panel, 48 h

| Structure (SMILES) | TGI |
| --- | --- |
| COC(=O)C1CC(C=[N+](C)C)=C(SC)N1 (configuration not stated) | > 100 µM |
| Brc1ccc2c3c1[C@@H]1O[C@@H]1c1cccc(c1-3)[C@@H]1O[C@H]21 | 63.1 µM |
| O=C(O)Cc1ccc2nc(COC(=O)c3ccccc3)sc2c1 | > 100 µM |
| N#CC(C#N)=C1CCCS(=O)(=O)c2ccccc21 | > 100 µM |
| O=c1c2cc(I)ccc2[nH]c(=S)n1Cc1ccccc1 | 57.5 µM |
| CCOC(=O)c1cnc2[nH]ccn2c1=O | > 10 µM |
| Cc1cccc(C[C@@]2(SCc3ccccc3)C(C)(C)[C@@H]3CC[C@@]2(C)C3)n1 | 29.5 µM |

Test system: SF-295 CNS
Assay: inhibition of tumour cell growth, NCI panel, 48 h

| Structure (SMILES) | TGI |
| --- | --- |
| COC(=O)C1CC(C=[N+](C)C)=C(SC)N1 (configuration not stated) | > 100 µM |
| Brc1ccc2c3c1[C@@H]1O[C@@H]1c1cccc(c1-3)[C@@H]1O[C@H]21 | 46 µM |
| O=C(O)Cc1ccc2nc(COC(=O)c3ccccc3)sc2c1 | > 100 µM |
| N#CC(C#N)=C1CCCS(=O)(=O)c2ccccc21 | > 100 µM |
| O=c1c2cc(I)ccc2[nH]c(=S)n1Cc1ccccc1 | > 100 µM |
| CCOC(=O)c1cnc2[nH]ccn2c1=O | > 10 µM |
| Cc1cccc(C[C@@]2(SCc3ccccc3)C(C)(C)[C@@H]3CC[C@@]2(C)C3)n1 | 29.1 µM |

Test system: SF-539 CNS
Assay: inhibition of tumour cell growth, NCI panel, 48 h

| Structure (SMILES) | TGI |
| --- | --- |
| Brc1ccc2c3c1[C@@H]1O[C@@H]1c1cccc(c1-3)[C@@H]1O[C@H]21 | 16.5 µM |
| N#CC(C#N)=C1CCCS(=O)(=O)c2ccccc21 | > 100 µM |
| O=c1c2cc(I)ccc2[nH]c(=S)n1Cc1ccccc1 | 33.4 µM |
| CCOC(=O)c1cnc2[nH]ccn2c1=O | > 10 µM |
| Cc1cccc(C[C@@]2(SCc3ccccc3)C(C)(C)[C@@H]3CC[C@@]2(C)C3)n1 | 55.1 µM |

Test system: SK-MEL-2 melanoma
Assay: inhibition of tumour cell growth, NCI panel, 48 h

| Structure (SMILES) | TGI |
| --- | --- |
| COC(=O)C1CC(C=[N+](C)C)=C(SC)N1 (configuration not stated) | > 100 µM |
| Brc1ccc2c3c1[C@@H]1O[C@@H]1c1cccc(c1-3)[C@@H]1O[C@H]21 | > 71.5 µM |
| O=C(O)Cc1ccc2nc(COC(=O)c3ccccc3)sc2c1 | > 100 µM |
| N#CC(C#N)=C1CCCS(=O)(=O)c2ccccc21 | > 100 µM |
| O=c1c2cc(I)ccc2[nH]c(=S)n1Cc1ccccc1 | 56 µM |
| CCOC(=O)c1cnc2[nH]ccn2c1=O | > 10 µM |

— PubChem BioAssay (NCI)
